Experimental data from US20240075017A1 (priority 2021, published 2024).
Entries after “also recorded” stand apart in the source; their conditions may differ.

How the values were obtained:
[1] = system: SARS-CoV-2-GFP; format: cell-based
[2] = system: wild-type (wt) SARS-CoV-2; assay: Plaque assay of released viral progeny from pre-treated Vero E6 cells; format: cell-based; conditions: 6 h pre-treatment, range of concentrations, MOI 0.01, 48 hours post-infection
[3] = system: SARS-CoV-2 (strain MUC-IMB-1); assay: Viral nucleoprotein (NP) western blot in A549-ACE2 cells; format: cell-based
[4] = system: SARS-CoV (strain Frankfurt 1); format: cell-based; conditions: A549-ACE2 cells, 6 h pre-treatment, 24 hours infection
[5] = system: SARS-CoV-2 (strain MUC-IMB-1); assay: NP immunofluorescence in primary normal human bronchial cells (NHBE) ex vivo; format: cell-based; conditions: 6 h pre-treatment, MOI 3, 24 hours post-infection
[6] = system: SARS-CoV-2 (strain MUC-IMB-1); format: cell-based
[7] = system: NHBE cells; format: cell-based, human
[8] = system: IL6; format: cell-based, human; conditions: NHBEs, 0.75 μM, mock-, SARS-CoV or SARS-CoV-2 infected, 24 h post-infection
[9] = system: IP-10; assay: Secreted IP10 by ELISA in NHBEs; format: cell-based, human
[10] = system: SARS-CoV; conditions: described previously (ref. 70); cited from earlier work

IFN-α
synergy of combination with DZNep (combination index, CI) [1]: strong synergism

CNC(=O)[C@@H](NC(=O)[C@H](CC(C)C)[C@H](O)C(=O)NO)C(C)(C)C [marimastat]
influence of DZNep co-treatment on the antiviral efficacy of the compound [1]: does not negatively influence the antiviral efficacy

CNc1ccc(/C=C/c2c(F)cccc2Cl)cc1 [FIDAS-5, (E)-4-(2-chloro-6-fluorostyryl)-N-methylaniline]
antiviral activity of co-treatment with DZNep [1]: synergistic antiviral activity
antiviral activity: growth of SARS-CoV-2-GFP reporter virus [1]: have antiviral activity against SARS-CoV-2
released viral progeny in the supernatant by plaque assay [2]: dose-dependent suppression of the wt SARS-CoV-2

Cc1nc2ccc(-c3c(Nc4ccccn4)[nH]c4c(-c5ccccc5)c(-c5ccccc5)nn4c3=O)cc2s1 [MAT2A inhibitor 1]
antiviral activity: growth of SARS-CoV-2-GFP reporter virus [1]: have antiviral activity against SARS-CoV-2

Nc1ncnc2c1ncn2C[C@@H](O)[C@@H](O)C(=O)O [DER, D-eritadenine]
antiviral activity: growth of SARS-CoV-2-GFP reporter virus [1]: have antiviral activity against SARS-CoV-2

NC(CCSCCCCC(=O)O)C(=O)O (racemic) [CBHcy, S-(4-Carboxybutyl)-D,L-homocysteine]
antiviral activity: growth of SARS-CoV-2-GFP reporter virus [1]: have antiviral activity against SARS-CoV-2
released viral progeny in the supernatant by plaque assay [2]: dose-dependent suppression of the wt SARS-CoV-2

CCN(CCO)CCCC(C)Nc1ccnc2cc(Cl)ccc12 (stereo not drawn) [Hydroxychloroquine]
influence of DZNep co-treatment on the antiviral efficacy of the compound [1]: does not negatively influence the antiviral efficacy

CC(C)NC[C@@H](C(=O)N1CCN(c2ncnc3c2[C@H](C)C[C@H]3O)CC1)c1ccc(Cl)cc1 [ipatasertib]
influence of DZNep co-treatment on the antiviral efficacy of the compound [1]: does not negatively influence the antiviral efficacy

CN(C)CCc1nnc2cc(-c3ccccc3)c3cc(Cl)ccc3n12 [PF-9366, 2-(7-Chloro-5-phenyl-[1,2,4]triazolo[4,3-a]quinolin-1-yl)-N,N-dimethylethan-1-amine]
antiviral activity: growth of SARS-CoV-2-GFP reporter virus [1]: have antiviral activity against SARS-CoV-2

Nc1nccc2c1ncn2[C@@H]1C=C(CO)[C@@H](O)[C@H]1O [DZNep, 3-deazaneplanocin A]
antiviral activity: growth of SARS-CoV-2-GFP reporter virus [1]: have antiviral activity against SARS-CoV-2; also recorded: particularly strong antiviral efficacy
role of STAT1 dependent interferon response in SARS-CoV-2 inhibition by the compound ([1]; STAT1 KO vs NTC A549-ACE2 cells, 6 h pre-treatment with DZNep and/or interferon alpha): does not play a major role in SARS-CoV-2 inhibition in vitro
released viral progeny in the supernatant by plaque assay [2]: dose-dependent suppression of the wt SARS-CoV-2
virus nucleoprotein (NP) expression by western blot [3]: potent antiviral effect against SARS-CoV-2
antiviral effect against SARS-CoV, expression of viral protein N [4]: do not observe an antiviral effect
inhibition of SARS-CoV-2 in primary human ex-vivo infection model [5]: potent inhibitor of SARS-CoV-2
expression of viral proteins (SARS-CoV-2) by mass spectrometry [6]: clear reduction
abundance changes of NP and spike (S), SARS-CoV-2 ([6]; A549-ACE2 (0.75 μM, 24 h) and NHBEs (1.5 μM, 36 h)): DZNep-dependent inhibition of SARS-CoV-2
abundance of innate immunity related factors (e.g. IL1RN, C3 and TNFAIP3/A20) [7]: DZNep-dependent changes in abundance
factors counteracting fibrotic processes (e.g. ELAFIN, SLPI and ECM1) [7]: up-regulation of factors counteracting fibrotic processes
factors of extrinsic coagulation cascade (e.g. F3 and TFPI2) and plasminogen activation system (e.g. PAI1, PLAT, PLAU) [7]: reduction of factors of extrinsic coagulation cascade
pulmonary fibrosis biomarkers (e.g. COL4A1, MMP14 and SERPINE1) [7]: reduction of pulmonary fibrosis biomarkers
IL6 secretion/expression by ELISA [8]: significantly reduced IL6 expression in all tested conditions
IP-10 secretion by ELISA [9]: IP-10 secretion was enhanced
antiviral activity against SARS-CoV in an in vivo infection model [10]: did not show antiviral activity against SARS-CoV
